According to patent US9676997B2, “Compositions and methods for stabilizing luminogenic substrates” (Promega Corporation, priority 2014, dated 2017):

Tests used:
[1] = Stability of 1.25 mM coelenterazine in 50% ethanol and 50% propylene glycol with or without 225 mM ATT, HPLC and Arrhenius plots; format: physicochemical; details: 225 mM ATT, over time at different temperatures
Experimental: The stability of coelenterazine in the presence and absence of ATT was measured over time at different temperatures. Specifically, 1.25 mM coelenterazine was present in a solution of 50% ethanol and 50% propylene glycol (i.e., the solution without ATT) or a solution of 50% ethanol and 50% propylene glycol with 225 mM ATT (i.e., the solution with ATT). These two solutions were incubated at −20° C., room temperature (RT), 40° C., or 60° C. and analyzed at 0 days, 1 day, 3 days, 7 days, 15 days, and 30 days.
Following incubation, high performance liquid chromatography (HPLC) was utilized to identify the components of the respective solutions at each time point. Specifically, an Agilent 1100 HPLC instrument was used and equipped with a quaternary pump, thermostatted autosampler and column compartment, and a G1311B diode-array detector. The column used was a Synergi-MAX-RP (Phenomenex, Torrance, Calif.) 100 AÅ 50×4.6 2.5 μm. The run on the HPLC was a gradient run with 0.1% TFA in water and acetonitrile. Absorbance was measured at 262 nanometers (nm). Standards of coelenterazine and its known degradants were run to confirm both the retention time and absorbance trace. 5 μl of each solution was injected and the retention time of coelenterazine was 3.9 minutes at room temperature.
The results of the HPLC analysis are shown below in Tables 1 and 2 and FIGS. 1A and 1B, in which the values are reported as relative peak area percentage at 262 nm (i.e., the lamba max of the substrate). […] In each of FIGS. 1A and 1B, diamond is 1.25 mM coelenterazine incubated over time with or without 225 mM ATT, respectively, at −20° C., triangle is 1.25 mM coelenterazine incubated over time with or without 225 mM ATT, respectively, at room temperature (RT), star is 1.25 mM coelenterazine incubated over time with or without 225 mM ATT, respectively, at 40° C., and cross is 1.25 mM coelenterazine incubated over time with or without 225 mM ATT, respectively, at 60° C.
From the HPLC analysis, the half-life of coelenterazine in the presence of ATT at 40° C. and 60° C. was calculated to be 23 days and 5 days, respectively, while the half-life of coelenterazine in the absence of ATT at 40° C. and 60° C. was calculated to be 9.5 days and 2 days, respectively (see Table 3 below).
Additionally, Arrhenius plots were generated for coelenterazine in the presence and absence of ATT to calculate the half-life of coelenterazine at various temperatures. The Arrhenius equation is as follows: […]
In FIG. 7, the slope was −8636.59, the intercept was 24.1199, and R^2 was 0.9983.
In FIG. 8, the slope was −7382.51, the intercept was 21.2598, and R^2 was 0.9570.

[2] = Stability of 2.3 mM furimazine at 37° C. in the dark with or without 200 mM thionucleoside, luminescence with NANOLUC enzyme; format: physicochemical; details: 50% propylene glycol:50% ethanol
Experimental: Specifically, a stock solution of furimazine in 50% propylene glycol:50% ethanol (v/v) was prepared, in which the final concentration of furimazine by absorbance was 4.6 mM. The furimazine stock solution was then diluted 1:1 in 50% propylene glycol:50% ethanol (v/v) to create a control solution without the additives ATT, TAK-0014 and TAK-0002 (i.e., “no additive furimazine” control) and containing 2.3 mM furimazine. 400 mM stock solutions of ATT, TAK-0014 and TAK-0002 were prepared in 50% propylene glycol:50% ethanol (v/v). Each of the ATT, TAK-0014 and TAK-0002 stock solutions was then diluted 1:1 in the 4.6 mM furimazine stock solution to yield solutions containing 200 mM ATT, TAK-0014 or TAK-0002, and 2.3 mM furimazine.
Each sample was separated into multiple amber tubes and incubated at 37° C. in a dark incubator (i.e., in the absence of light). Aliquots were taken from each sample at various time points and stored at −20° C. in the dark (i.e., in the absence of light) until all time points were collected.
To measure luminescence in the aliquots, each aliquot was diluted 1:50 in buffer (NANOGLO buffer, Promega Corporation) to yield 46 μM furimazine. These diluted aliquots were further diluted 1:10 in buffer (NANOGLO buffer, Promega Corporation) to yield 4.6 μM furimazine. 504 of each dilution (i.e., the twice diluted (0.1) aliquots) was mixed with 504, of CO2-independent media+10% fetal bovine serum (FBS) and 0.4 ng/mL luminogenic enzyme (NANOLUC enzyme, Promega Corporation). Luminescence was measured on a luminometer (GLOMAX Multi Plus luminometer, Promega Corporation). Relative light units (RLUs) were normalized for each time point by the RLU value at the 0 days time point. The percent activity from the 0 days time point (i.e., t=0) was plotted against time (days) for each sample as shown in FIG. 15A. In FIG. 15A, B-ATT denoted TAK-0002 and E-ATT denoted TAK-0014.
Error in Table 15 was the standard error from a regression calculation and Fz denoted furimazine, B-ATT denoted TAK-0002, and E-ATT denoted TAK-0014.

Cc1n[nH]c(=S)[nH]c1=O [ATT, 6-methyl-3-thioxo-3,4-dihydro-1,2,4-triazin-5(2H)-one]
stabilization of coelenterazine against decomposition [1]: stabilized coelenterazine against decomposition over time at different temperatures | stabilization of furimazine against decomposition in the absence of light [2]: stabilized furimazine against decomposition in the absence of light
